Experimental data from PMC12109412.

Assay: Single-molecule FRET cyclization (looping) of surface-immobilised 83 bp duplex with complementary 10-nt 5' overhangs; noncovalent ring closure by sticky-end hybridisation triggered by 1 M NaCl (no ligase)
Details: the molecule shown is the open-chain precursor, water, 50 mM Tris-HCl, 3 mM Trolox, glucose oxidase/catalase oxygen scavenger, other

| Substance | ring closure, halflife [min] |
| --- | --- |
| DNA 5'-Cy5-acggattctgtgaaacggtggaggtgaggaT(biotin)agtcatgggtcaattagaagtcataggagaagtattaagggagtctatattgaggtactagc-3' / DNA 5'-Cy3-cagaatccgtgctagtacctcaatatagactcccttaatacttctcctatgacttctaattgacccatgactatcctcacctccaccgtttca-3' | 31.5 |
| DNA 5'-Cy5-acggattctgtgaaacggtggaggtgaggaT(biotin)agtcatgggtcaattagaagtcataggagaagtattaagggagtctatattgaggtactagc-3' / RNA 5'-Cy3-cagaauccgugcuaguaccucaauauagacucccuuaauacuucuccuaugacuucuaauugacccaugacuauccucaccuccaccguuuca-3' | 20.4 |
| DNA 5'-Cy5-agagaaagaggcaaaaggggacggaagggaT(biotin)ggagccagaggagggggtgacagttgagtctcagccacaggtgaaggtggagccactggagg-3' / RNA 5'-Cy3-cucuuucucuccuccaguggcuccaccuucaccuguggcugagacucaacugucacccccuccucuggcuccaucccuuccguccccuuuugc-3' | 26.1 |
| DNA 5'-Cy5-tccagaggcttcatctccggctccactggcT(biotin)ccatcgcctccgtccctggctccatcattgccatctgtcccttttcttttttcctcttcttc-3' / RNA 5'-Cy3-agccucuggagaagaagaggaaaaaagaaaagggacagauggcaaugauggagccagggacggaggcgauggagccaguggagccggagauga-3' | 10.3 |
| DNA 5'-Cy5-cctccagtggctccaccttcacctgtggcT(biotin)gagactcaactgtcaccccctcctctggctccatcccttccgtccccttttgcctctttctct-3' / RNA 5'-Cy3-ccacuggaggagagaaagaggcaaaaggggacggaagggauggagccagaggagggggugacaguugagucucagccacaggugaagguggag-3' | 10.8 |
| DNA 5'-Cy5-gaagaagaggaaaaaagaaaagggacagaT(biotin)ggcaatgatggagccagggacggaggcgatggagccagtggagccggagatgaagcctctgga-3' / RNA 5'-Cy3-ccucuucuucuccagaggcuucaucuccggcuccacuggcuccaucgccuccgucccuggcuccaucauugccaucugucccuuuucuuuuuu-3' | 21.7 |
